{
  "source": "paper PMC11489226",
  "about": "(Archives of Toxicology, 2024)",
  "biological_target": "T1, CYP1A2 (Homo sapiens, UniProt P05177)",
  "T1 sequence (P05177 1-516)": "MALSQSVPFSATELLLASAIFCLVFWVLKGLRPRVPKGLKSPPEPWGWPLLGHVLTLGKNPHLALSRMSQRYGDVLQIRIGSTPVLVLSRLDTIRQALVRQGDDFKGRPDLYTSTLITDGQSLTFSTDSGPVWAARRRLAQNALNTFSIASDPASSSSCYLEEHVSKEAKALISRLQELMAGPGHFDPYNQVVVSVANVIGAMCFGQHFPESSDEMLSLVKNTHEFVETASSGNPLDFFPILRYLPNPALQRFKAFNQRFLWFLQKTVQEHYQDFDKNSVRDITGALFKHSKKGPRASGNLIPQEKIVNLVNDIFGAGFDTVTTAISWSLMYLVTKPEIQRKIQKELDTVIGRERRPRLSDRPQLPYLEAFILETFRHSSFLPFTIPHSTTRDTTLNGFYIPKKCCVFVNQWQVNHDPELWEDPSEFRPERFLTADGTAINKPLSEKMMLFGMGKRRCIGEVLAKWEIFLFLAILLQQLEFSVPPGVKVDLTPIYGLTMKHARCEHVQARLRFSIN",
  "assay": "Metabolism in transgenic HEK293 cells expressing CYP1A2 (LC-MS/MS of supernatant)",
  "details": "for Quantification of metabolites generated from PCB28, 52, and 101: 20 µM parent PCB, 24 h, supernatant; for Metabolite concentration formed, range across cell clones: HEK293CYP1A2 cell clones, 20 µM PCB28, 24 h",
  "experimental": "For the generation of transgenic cell lines, we used semi-adherent HEK293 cells (DSMZ, ACC305, human embryonic kidney cells) which were cultured on a daily basis in DMEM medium supplemented with 10% (FCS) and 1% penicillin/streptomycin. In a first step CYP1A2, CYP2C8, CYP2C9, CYP3A4, CYP2A6, and CYP2E1 cDNA were cloned into the plasmid pcDNATM3.1/V5-His TOPO® using human liver RNA as a template and using the following primers: CYP1A2 for5′-[…]-3′, CYP1A2 rev 5′-[…]-3′; CYP2C8 for 5′-[…]-3′, CYP2C8 rev 5′-[…]-3′; CYP2C9 for 5′-[…]-3′, CYP2C9 rev 5′-[…]-3′; CYP3A4 for 5′-[…]-3′, CYP3A4 rev 5′-[…]-3′, CYP2A6 for 5′-[…]-3′, CYP2A6 rev 5′-[…]-3′; CYP2E1 for 5′-[…]-3′, CYP2E1 rev 5′-[…]-3′. Final constructs were verified with Sanger DNA sequencing and restriction digestion. For transfection, 3 × 10^6 HEK293 cells were pre-incubated in a 10 cm dish in DMEM medium with 10% FCS, but without antibiotics, for 18 to 24 h. When the cells reached approximately 70% confluency, they were transfected using TransIT-LT1 transfection reagent (Biozol, Eiching, Germany). The TransIT-LT1 reagent was warmed to room temperature and vortexed. 1.63 mL Opti-MEM, 16.25 µL plasmid DNA (1 µg/µL), and 48.75 µL TransIT-LT1 reagent were mixed and incubated for 15 to 30 min. The mixture was then added dropwise to the medium of the cells, and the cells were incubated again at 37 °C and 5% CO2. After 24 h, the medium was replaced with standard medium and geneticin was added for selection (1 mg/mL). Cells were selected for 6–8 weeks in bulk culture, and single cell clones were obtained subsequently by limiting dilution. Each clone was checked for insertion by PCR using genomic DNA as a template.\nParallel samples were run without the addition of PCBs. At a confluence of 80%, PCBs (20 μM each, dissolved in ethanol) were added and cells were incubated for 24 h before harvest of supernatants. Supernatants were diluted 1:2 with 80 μL acetate buffer 0.1 M (pH = 5.3). 100 μL of this dilution were further incubated with 100 μL of ammonium acetate buffer 0.1 M (pH = 5.3) and 5 μL of β-Glucuronidase/Arylsulfatase enzyme overnight in a drying oven at 37 °C for enzymatic hydrolysis to release conjugated compounds. 50 μL of a mix of internal standards (10 ng/mL) and 600 μL of methanol were added to the samples, then mixed by vortexing for 1 min and centrifuged for 10 min at 3400g. The individual supernatants were transferred to glass LC vials and evaporated to approximately 50 μL at 45 °C under a gentle stream of nitrogen. Finally, 0.1 mol/ L ammonium acetate buffer was added to a final volume of 100 μL and then transferred to an insert for analysis.\nHEK293 cells overexpressing the respective CYP enzymes were seeded onto 6-well plates and were treated with or without 10 µM of the respective probe drug in DMEM medium for 24 hours at 37 °C and 5 % CO2. After incubation 200 µL DMEM were collected, cells were washed with PBS and adherent cells were lysed in 500 µL methanol for 20 minutes. Analytes were measured by LC-MS/MS either in methanol cell lysates or in DMEM supernatant.\n50 µL of DMEM samples were protein precipitated by adding 200 µL of methanol and were centrifuged for 20 min, 17,000 g and 4°C. Supernatants were diluted in water or 40 % methanol according to dilution factor. Methanol cell lysates were diluted ½ with water and centrifuged for 20 min, 17,000 g and 4°C. 5 µL of the processed samples were injected for LC-MS analysis.",
  "note": "“And” between values parts separate entries of the source, which are not always exact repeats. Equal values may be shown once.",
  "data": [
    {"smiles": "Oc1cc(-c2ccc(Cl)cc2)c(Cl)cc1Cl", "note": "[5-OHCB28, 2,4,4′-trichloro-5-biphenylol]", "values": [
      {"measurement": "Quantification of metabolites generated from PCB28, 52, and 101", "setting": "CYP1A2, clone G5", "result": "6,22 nM"},
      {"measurement": "Quantification of metabolites generated from PCB28, 52, and 101", "setting": "CYP1A2, clone G8", "result": "9,07 nM"},
      {"measurement": "Metabolite concentration formed, range across cell clones", "result": "1.7–2.48 µg/L and 6.22–9.07 nM"}
    ]},
    {"smiles": "Oc1cc(Cl)c(-c2ccc(Cl)cc2)cc1Cl", "note": "[4-OHCB31, 2,4′,5-trichloro-4-biphenylol]", "values": [
      {"measurement": "Quantification of metabolites generated from PCB28, 52, and 101", "setting": "CYP1A2, clone G5", "result": "0,69 nM"},
      {"measurement": "Quantification of metabolites generated from PCB28, 52, and 101", "setting": "CYP1A2, clone G8", "result": "1,11 nM"},
      {"measurement": "Metabolite concentration formed, range across cell clones", "result": "0.19–0.30 µg/L and 0.69–1.11 nM"}
    ]}
  ]
}
